Converted amounts (≈) assume the structure as drawn. “Also recorded” adds a separate entry of the source. Like-named read-outs stand apart in the source and are kept apart here.
How the values were obtained:
[1] = test system: M. tuberculosis H37Rv; test: MIC by agar dilution method; assay type: cell-based; settings: Mycobacterium tuberculosis, acidic agar pH 5.5 to 6, 30 days
[2] = test system: M. tuberculosis (H37Rv); test: In vitro accumulation assay, M. tuberculosis; assay type: cell-based; settings: 120 min of incubation
[3] = test system: Staphylococcus aureus (ATCC 29213); test: In vitro accumulation assay, S. aureus; assay type: cell-based; settings: 120 min of incubation
[4] = test system: Escherichia coli (ATCC 25922); test: In vitro accumulation assay, E. coli; assay type: cell-based; settings: 120 min of incubation
[5] = test system: Pseudomonas aeruginosa (ATCC 10145); test: In vitro accumulation assay, P. aeruginosa; assay type: cell-based; settings: 120 min of incubation
[6] = test system: J774A.1 murine macrophage cells; test: Uptake assay in macrophage cells; assay type: cell-based; settings: 120 min of incubation
[7] = mouse, 740 kBq/mL
[8] = test system: heat-killed control cultures; test: Accumulation assay in heat-killed bacteria (negative control); settings: heat-killed 90°C for 30 min
[9] = PET/CT imaging and ex vivo biodistribution in M. tuberculosis-infected and uninfected mice
[10] = assay type: in vitro ADME, mouse
Method: Test compounds were weighed and dissolved in dimethyl sulfoxide (DMSO) to give 10 mM stock solutions. The stock solutions were diluted to 500 μM with a mixture of methanol and H2O (1:1), and the final concentrations of DMSO and methanol were equal to, or less than, 0.1%. Liver microsome incubations were conducted in duplicate in 96—well plates. Each well contained 40 μL of 0.1 M potassium phosphate buffer (pH 7.4), 2.5 mM MgCl2, 0.625 mg/mL mouse liver microsomes, and test compound (1.25 μM) or positive control. After a 5 min pre-incubation at 37°C, 10 μL of 5.0 mM NADPH in 0.1 M potassium phosphate buffer was added to initiate the enzymatic reaction. The final concentrations were 0.1M potassium phosphate (pH 7.4), 1.0 mM NADPH, 2.0 mM MgCl2, 0.5 mg/mL mouse liver microsomes, and test compound (1.0 μM) or positive control (1.0 μM). Reactions were terminated at various time points (0, 5, 10, 20, 40 min) by adding 100 μL of ice-cold acetonitrile containing internal standard. A parallel incubation was performed using 0.1 M potassium phosphate (pH 7.4) instead of NADPH as the negative control, and the reaction was terminated 40 min after incubation at 37°C. Compound quantitation was performed on a Shimadzu liquid chromatographic system coupled with an API4000 mass spectrometer equipped with TurboIonSpray (ESI) Interface (Applied Biosystems).

[11] = test system: M. tuberculosis; design: method as in PMID 23287128; settings: ref [31]; cited from earlier work
[12] = M. tuberculosis H37Rv, read-out: MIC

**Q.** With `NC(=O)c1cnccn1` [PZA, pyrazinamide] as the compound, how does the MIC [1, 12] read?
**A.** 20 µg/mL (≈ 0.162 mM)

**Q.** Which results are given for `NC(=O)c1cnc([18F])cn1` [5-[^18F]F-PZA, 5-[^18F]F-pyrazinamide]?
**A.** In vitro accumulation in M. tuberculosis [2]: 0.094%; In vitro accumulation in S. aureus [3]: 0.123±0.014; In vitro accumulation in E. coli [4]: 0.055±0.005; In vitro accumulation in P. aeruginosa [5]: 0.043±0.026; Accumulation in J774A.1 murine macrophage cells [6]: 0.057±0.019; incubation time after which defluorination could be detected [7]: 2 min; percent of total activity defluorinated ([7]; 30 min): ~ 25%; percent defluorination ([7]; 60 min): ~ 40%; Uptake in heat-killed control cultures [8]: no uptake; bone activity ([9]; PET 10 min and 30 min post-injection, post-mortem analysis): significant activity in the bones; distribution to organs after intravenous administration ([9]; PET imaging): rapidly distributed to various organs; elimination from organs ([9]; PET imaging): rapidly eliminated from all major organs; ex vivo activity in lung (and spleen), infected vs uninfected ([9]; direct γ counting after PET imaging): higher activity in uninfected lung tissue compared to infected lungs; also recorded: higher activity in uninfected lung and spleen tissues; PET concentration (%ID/cc) in blood, liver, bone and lungs, infected vs uninfected mice ([9]; intravenous, throughout 60 min post-injection): not significantly different; also recorded: No significant difference

**Q.** Which results are given for `NC(=O)c1cnc(F)cn1` [5-F-PZA, 5-Fluoropyrazinamide]?
**A.** MIC ([1]; H37RV, read-out: concentration up to which bacterial growth was not inhibited (MIC)): > 2000 µg/mL; MIC [1, 12]: > 2000 µg/mL; fraction of initial concentration metabolized ([10]; CD-1, mouse, microsomes, 40 min, 1 μM, pH 7.4): approximately 20%; stability in the presence of liver microsomes ([10]; mouse): not stable

**Q.** For `NC(=O)c1cnc(Cl)cn1` [5-Cl-PZA, 5-Chloropyrazinamide], which “activity in M. tuberculosis-infected mice” value [11] is on record?
**A.** lack of activity

From paper PMC5289470, “The biodistribution of 5-[^18F]fluoropyrazinamide in Mycobacterium tuberculosis-infected mice determined by positron emission tomography” (PLoS ONE, 2017)
